We go through 20 compounds from patent US20260028354A1, “TETRAHYDRONAPHTHALENE DERIVATIVES AS ESTROGEN RECEPTOR DEGRADERS” (REGENT OF THE UNIVERSITY OF MICHIGAN, priority 2022, published 2026).

Counter-ions that a name gives are not always drawn. Like-named read-outs stand apart in the source and are kept apart here.

One test concerns the target ER in T47D cells (Homo sapiens (Human), UniProt P03372). The experiment in a line: In-cell Western (ICW) ER degradation assay in T47D cells. The class given is cell-based. The note with it: for DC50: ER degradation. The text has this:
(§1) In-cell Western (ICW) assays in MCF-7 and T47D cell lines.
(§2) Day 3: After 16 hrs of compounds treatment, cells were fixed by 4% PFA and permeabilized with elution buffer (0.1% Triton X-100 in 1% PBS Solution). Subsequently, cells were blocked with Intercept (PBS) Blocking Buffer (Li-COR, Odyssey Blocking Buffer), and were stained with ER (1:500, Cell signaling) primary antibody for overnight at cold room.
(§3) Day 4: Remove the buffer, add IRDye 800CW Goat anti-Rabbit IgG Secondary Antibody (1:2000) and CellTag 700 Stain (1:500) in Intercept (PBS) Blocking Buffer. Finally, cell plate is placed in incubator to dry. Image and signal were captured on Odyssey® DLx Imaging System.

A further test has as its target ER in MCF-7 cells (Homo sapiens (Human), UniProt P03372). The test is described as follows: In-cell Western (ICW) ER degradation assay in MCF-7 cells. It counts as cell-based. The note with it: for DC50: MCF-7, ER degradation, read-out: MCF7 DC50.
Source text: as §1, §2, §3

[1] abbreviates: maximal ER degradation, 16 hrs treatment, read-out: T47D Dmax.
Setting [2] is: MCF7, read-out: MCF7 Dmax, MCF-7, maximal ER degradation, 16 hrs treatment.
[3] abbreviates: MCF7, MCF-7, maximal ER degradation, 16 hrs treatment, read-out: MCF7 Dmax.
[4] abbreviates: read-out: T47D Dmax, T47D, maximal ER degradation, 16 hrs treatment.
Setting [5] is: maximal ER degradation, 16 hrs treatment.

Sequence of ER in MCF-7 cells (P03372 whole entry): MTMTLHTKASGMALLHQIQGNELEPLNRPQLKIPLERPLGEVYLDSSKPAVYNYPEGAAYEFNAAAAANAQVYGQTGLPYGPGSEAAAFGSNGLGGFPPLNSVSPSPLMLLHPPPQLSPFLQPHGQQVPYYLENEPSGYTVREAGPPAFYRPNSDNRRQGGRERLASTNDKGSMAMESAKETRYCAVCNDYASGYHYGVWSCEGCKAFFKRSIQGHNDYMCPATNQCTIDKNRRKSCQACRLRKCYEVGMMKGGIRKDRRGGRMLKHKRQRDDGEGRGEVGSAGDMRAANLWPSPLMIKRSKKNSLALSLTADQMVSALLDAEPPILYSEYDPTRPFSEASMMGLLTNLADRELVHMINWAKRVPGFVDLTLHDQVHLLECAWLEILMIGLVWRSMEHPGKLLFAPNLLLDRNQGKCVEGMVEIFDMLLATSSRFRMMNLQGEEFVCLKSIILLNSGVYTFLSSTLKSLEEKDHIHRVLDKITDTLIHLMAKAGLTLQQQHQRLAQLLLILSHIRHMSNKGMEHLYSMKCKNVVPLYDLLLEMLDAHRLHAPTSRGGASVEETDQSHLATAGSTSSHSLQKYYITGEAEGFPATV
Sequence of ER in T47D cells (P03372 whole entry): as above

Usually DC50 stands for the concentration at which degradation of the target reaches its halfway point. Broadly, the Dmax is the largest share of the target that was removed. With `COc1cc(N2CCC(CN3CCN4c5cc6c(cc5OC[C@@H]4C3)C(=O)N([C@H]3CCC(=O)NC3=O)C6)CC2)ccc1[C@H]1c2ccc(O)cc2CC[C@H]1c1ccccc1` (single isomer, unassigned) [Compound A21], the figures for the DC50 at ER in T47D cells (16 hrs treatment) and on ER in MCF-7 cells (16 hrs treatment) were 1 to 10 nM and 10 to 100 nM, respectively. For the same compound, the Dmax on ER in T47D cells (setting [1]) and at ER in MCF-7 cells (setting [2]) was 50 to 75% throughout.

For the compound `COc1cc(N2CCC3(CC2)CC(CN2CCC(c4ccc(N[C@@H]5CCC(=O)NC5=O)cc4)CC2)C3)c(F)cc1[C@H]1c2ccc(O)cc2CC[C@H]1c1ccccc1` (single isomer, unassigned) [Compound A46], the DC50 on ER in T47D cells (16 hrs treatment) and on ER in MCF-7 cells (16 hrs treatment) was 10 to 100 nM each time. Moreover, the Dmax on ER in T47D cells (setting [1]) and on ER in MCF-7 cells (setting [3]) was 25 to 50% in each case.

As for `COc1cc(N2CCC(CN3CCC(c4ccc(N[C@@H]5CCC(=O)NC5=O)cc4F)CC3)CC2)ccc1[C@@H]1c2ccc(O)cc2CC[C@@H]1c1ccccc1` (single isomer, unassigned) [Compound A85], the DC50 on ER in T47D cells (16 hrs treatment) and on ER in MCF-7 cells (16 hrs treatment) was < 1 nM in each case. In addition, the figures for the Dmax at ER in T47D cells (setting [1]) and at ER in MCF-7 cells (setting [3]) were 50 to 75% and 25 to 50%, respectively.

In the case of `COc1cc(N2CCC(CN3CCC(c4ccc(N[C@H]5CCC(=O)NC5=O)cc4)CC3)CC2)ccc1[C@@H]1c2ccc(O)cc2CC[C@@H]1c1ccccc1` (single isomer, unassigned) [Compound A86], the DC50 at ER in T47D cells (16 hrs treatment) lay in the range of 10 to 100 nM; on ER in MCF-7 cells (16 hrs treatment) it was 1 to 10 nM. Also, the Dmax on ER in T47D cells (setting [1]) is 25 to 50%; at ER in MCF-7 cells (setting [3]), < 25%.

`COc1cc(N2CCC(CN3CCC(c4ccc(N[C@@H]5CCC(=O)NC5=O)cc4)CC3)CC2)ccc1[C@@H]1c2ccc(O)cc2CC[C@@H]1c1ccccc1` (single isomer, unassigned) [Compound A87]: the DC50 at ER in T47D cells (16 hrs treatment) and at ER in MCF-7 cells (16 hrs treatment) was < 1 nM in each case. Further, the Dmax at ER in T47D cells (setting [1]) and at ER in MCF-7 cells (setting [3]) was 25 to 50% throughout.

Consider `COc1cc(N2CCC3(CC2)CC(CN2CCC(c4ccc(N[C@H]5CCC(=O)NC5=O)cc4)CC2)C3)ccc1[C@@H]1c2ccc(O)cc2CC[C@@H]1c1ccccc1` (single isomer, unassigned) [Compound A96], for which the DC50 on ER in T47D cells (16 hrs treatment) and on ER in MCF-7 cells (16 hrs treatment) was < 1 nM throughout. Besides, the Dmax on ER in T47D cells (setting [1]) and on ER in MCF-7 cells (setting [3]) was 50 to 75% in each case.

In turn, `COc1cc([C@H]2c3ccc(O)cc3CC[C@H]2c2ccccc2)c(F)cc1N1CCC2(CC1)CC(CN1CCN3c4ccc5c(c4OC[C@H]3C1)CN([C@H]1CCC(=O)NC1=O)C5=O)C2` (single isomer, unassigned) [Compound A102] had a DC50 at ER in T47D cells (16 hrs treatment) of 1 to 10 nM. Besides, the Dmax on ER in T47D cells (setting [4]) is > 75%.

In the case of `COc1cc([C@@H]2c3ccc(O)cc3CC[C@@H]2c2ccccc2)c(F)cc1N1CCC2(CC1)CC(CN1CCN3c4ccc5c(c4OC[C@H]3C1)CN([C@H]1CCC(=O)NC1=O)C5=O)C2` (single isomer, unassigned) [Compound A103], the DC50 at ER in T47D cells (16 hrs treatment) was 10 to 100 nM. In addition, the Dmax on ER in T47D cells (setting [4]) lay within 50 to 75%.

Take `COc1cc(N2CCC3(CC2)CC(CN2CCC(c4ccc(N[C@H]5CCC(=O)NC5=O)cc4F)CC2)C3)ccc1[C@@H]1c2ccc(O)cc2CC[C@@H]1c1ccccc1` (single isomer, unassigned) [Compound A105]: the values for the DC50 on ER in T47D cells (16 hrs treatment) and at ER in MCF-7 cells (16 hrs treatment) were 1 to 10 nM and < 1 nM, respectively. Moreover, the Dmax on ER in T47D cells (setting [1]) and at ER in MCF-7 cells (setting [3]) was 50 to 75% each time.

Take `COc1cc(N2CCC3(CC2)CC(CN2CCC(c4ccc(N[C@@H]5CCC(=O)NC5=O)cc4)CC2)C3)ccc1[C@@H]1c2ccc(O)cc2CC[C@@H]1c1ccccc1` (single isomer, unassigned) [Compound A110]: the DC50 on ER in T47D cells (16 hrs treatment) and on ER in MCF-7 cells (16 hrs treatment) was < 1 nM in each case. For the same compound, the Dmax on ER in T47D cells (setting [1]) and on ER in MCF-7 cells (setting [3]) was 50 to 75% throughout.

On to `O=C1CC[C@H](NC(=O)c2ccc3c(n2)OC[C@H]2CN(CC4CC5(CCN(c6ccc([C@H]7c8ccc(O)cc8CC[C@H]7c7ccccc7)cn6)CC5)C4)CCN32)C(=O)N1` (single isomer, unassigned) [Compound A114], for which the DC50 at ER in T47D cells (16 hrs treatment) is > 100 nM. Moreover, the Dmax at ER in T47D cells (setting [1]) is < 25%.

`O=C1CC[C@H](NC(=O)c2ccc3c(n2)OC[C@H]2CN(CC4CC5(CCN(c6ccc([C@@H]7c8ccc(O)cc8CC[C@@H]7c7ccccc7)cn6)CC5)C4)CCN32)C(=O)N1` (single isomer, unassigned) [Compound A115] yielded a DC50 on ER in T47D cells (16 hrs treatment) of 1 to 10 nM. In addition, the Dmax at ER in T47D cells (setting [1]) was > 75%.

Regarding `O=C1CC[C@H](N2Cc3c(ccc4c3OC[C@H]3CN(CC5CCC6(CC5)CN(c5ccc([C@@H]7c8ccc(O)cc8CC[C@@H]7c7ccccc7)cn5)C6)CCN43)C2=O)C(=O)N1` (single isomer, unassigned) [Compound A123, (S)-3-((R)-7-((2-(5-((1S,2S)-6-hydroxy-2-phenyl-1,2,3,4-tetrahydronaphthalen-1-yl)pyridin-2-yl)-2-azaspiro[3.5]nonan-7-yl)methyl)-1-oxo-1,3,5,5a,6,7,8,9-octahydro-2H-pyrazino[1′,2′: 4,5][1,4]oxazino[2,3-e]isoindol-2-yl)piperidine-2,6-dione], the DC50 on ER in T47D cells (16 hrs treatment) and at ER in MCF-7 cells (16 hrs treatment) was < 1 nM each time.

`O=C1CC[C@H](N2Cc3c(ccc4c3OC[C@H]3CN(CC5CC6(CCN(c7ncc([C@@H]8c9ccc(O)cc9CC[C@@H]8c8ccccc8)cn7)CC6)C5)CCN43)C2=O)C(=O)N1` (single isomer, unassigned) [Compound A140]: the DC50 at ER in T47D cells (16 hrs treatment) was 1 to 10 nM; on ER in MCF-7 cells (16 hrs treatment), < 1 nM. The Dmax at ER in T47D cells (setting [1]) and on ER in MCF-7 cells (setting [3]) was > 75% in each case.

Regarding `O=C1CC[C@H](N2Cc3c(ccc4c3OC[C@H]3CN(CC5CC6(CCN(c7ccc([C@H]8c9ccc(O)cc9CC[C@H]8c8ccccc8)cc7F)CC6)C5)CCN43)C2=O)C(=O)N1` (single isomer, unassigned) [Compound A147], the DC50 at ER in T47D cells (16 hrs treatment) was 1 to 10 nM; on ER in MCF-7 cells (16 hrs treatment), < 1 nM. For the same compound, the Dmax on ER in T47D cells (setting [1]) and on ER in MCF-7 cells (setting [3]) was > 75% each time.

As for `O=C1CC[C@@H](N2Cc3cc4c(cc3C2=O)OC[C@H]2CN(CC3COC5(C3)CN(c3ccc([C@H]6c7ccc(O)cc7CC[C@H]6c6ccccc6)cc3)C5)CCN42)C(=O)N1` (stereo in doubt) [Compound A8, (3R)-3-((4aR)-3-((2-(4-((1S,2R)-6-hydroxy-2-phenyl-1,2,3,4-tetrahydronaphthalen-1-yl)phenyl)-5-oxa-2-azaspiro[3,4]octan-7-yl)methyl)-8-oxo-1,2,3,4,4a,5,8,10-octahydro-9H-pyrazino[1′,2′: 4,5][1,4]oxazino[2,3-f]isoindol-9-yl)piperidine-2,6-dione], the 50% degradation concentration (DC50) at ER in T47D cells (16 hrs treatment) and on ER in MCF-7 cells (16 hrs treatment) was < 1 nM in each case. Also, the “T47D Dmax” value on ER in T47D cells (setting [5]) is reported as “A (“A”: >=75%)”. Further, the Dmax at ER in MCF-7 cells (setting [2]) is > 75%.

In the case of `COc1cc(N2CCC(CN3CCC(c4ccc(N[C@@H]5CCC(=O)NC5=O)cc4F)CC3)CC2)ccc1[C@H]1c2ccc(O)cc2CC[C@H]1c1ccccc1` (stereo in doubt) [Compound A84, (R)-3-((3-fluoro-4-(1-((1-(4-((1R,2R)-6-hydroxy-2-phenyl-1,2,3,4-tetrahydronaphthalen-1-yl)-3-methoxyphenyl)piperidin-4-yl)methyl)piperidin-4-yl)-phenyl)amino)piperidine-2,6-dione formate], the DC50 on ER in T47D cells (16 hrs treatment) was 10 to 100 nM; at ER in MCF-7 cells (16 hrs treatment), < 1 nM. Besides, the Dmax at ER in T47D cells (setting [1]) was 25 to 50%; at ER in MCF-7 cells (setting [3]), < 25%.

`O=C1CC[C@H](N2Cc3cc4c(cc3C2=O)OCC42CCN(C[C@H]3COC4(CCN(c5ccc([C@H]6c7ccc(O)cc7CC[C@H]6c6ccccc6)cc5)CC4)C3)CC2)C(=O)N1` [Compound A22, (S)-3-(1′-(((S)-8-(4-((1S,2R)-6-hydroxy-2-phenyl-1,2,3,4-tetrahydronaphthalen-1-yl)-phenyl)-1-oxa-8-azaspiro[4.5]decan-3-yl)methyl)-7-oxo-5,7-dihydro-2H,6H-spiro[furo[2,3-f]isoindolc-3,4′-pipcridin]-6-yl)pipcridinc-2,6-dione]: the DC50 at ER in T47D cells (16 hrs treatment) and on ER in MCF-7 cells (16 hrs treatment) was < 1 nM throughout. The Dmax lay within 25 to 50% at ER in T47D cells (setting [4]) and 50 to 75% on ER in MCF-7 cells (setting [2]).

In the case of `O=C1CC[C@H](N2Cc3cc4c(cc3C2=O)OCC42CCN(C[C@@H]3COC4(CCN(c5ccc([C@@H]6c7ccc(O)cc7CC[C@@H]6c6ccccc6)cc5)CC4)C3)CC2)C(=O)N1` [Compound A26, (3S)-3-(1′-((8-(4-((1R,2S)-6-hydroxy-2-phenyl-1,2,3,4-tetrahydronaphthalen-1-yl)-phenyl)-1-oxa-8-azaspiro[4.5]decan-3-yl)methyl)-7-oxo-5,7-dihydro-2H,6H-spiro[furo[2,3-f]isoindole-3,4′-piperidin]-6-yl)piperidine-2,6-dione], the DC50 at ER in T47D cells (16 hrs treatment) and at ER in MCF-7 cells (16 hrs treatment) was 10 to 100 nM each time. Also, the “T47D Dmax” value on ER in T47D cells (setting [5]) is listed as “C (“C”: 25-50%)”. In addition, the “MCF7 Dmax” value at ER in MCF-7 cells (MCF-7, maximal ER degradation, 16 hrs treatment) is “C (“C”: 25-50%)”.

Turning to `COc1cc(N2CCC3(CC2)CC(CN2CCC4(CC2)COc2nc(C(=O)N[C@H]5CCC(=O)NC5=O)ccc24)C3)c(F)cc1[C@@H]1c2ccc(O)cc2CC[C@@H]1c1ccccc1` [Compound A190, N-((S)-2,6-dioxopiperidin-3-yl)-1′-((7-(2-fluoro-4-((1S,2S)-6-hydroxy-2-phenyl-1,2,3,4-tetrahydronaphthalen-1-yl)-5-methoxyphenyl)-7-azaspiro [3.5]nonan-2-yl)methyl)-2H-spiro[furo[2,3-b]pyridine-3,4′-piperidine]-6-carboxamide], on ER in MCF-7 cells (setting [2]), the Dmax was 50 to 75%. Also, at ER in MCF-7 cells (16 hrs treatment), the DC50 is < 1 nM.
